Drawing on US7927581B2, “Peptide-based multimeric targeted contrast agents” (Factor 1A, LLC, priority 2001, dated 2011), this text covers Kd and half-life for 9 molecules.

The target in one data set is fibrin DD(E) fragment (Homo sapiens, UniProt P02671+P02675+P02679). Nature of the data set: Fibrin DD(E) fragment affinity of optical contrast agents. It counts as binding. How it is done:
NovaSyn TGR resin (0.20 mmol/g, 100 mg, 20 μmol) was washed with NMP/ether/NMP. The peptide was assembled by the standard solid phase method using the PyBOP/HOBt/DIEA activation. After the coupling of the final amino acid residue, the resin bound peptide was treated with a solution of piperidine in DMF (20% by volume, 2.0 mL) for 10 minutes to remove the Fmoc protecting group. The resin was washed thoroughly with NMP/ether/NMP, and was treated with a solution of fluorascein-5-isothiocyanate (23.4 mg, 60 μmol) and duisopropylethylamine (11.6 mg, 15.7 μL, 90 μmol) in DMF (1.5 mL) for 12 hours. The resin was washed thoroughly (NMP/ether/NMP), and treated with a solution of Tl (TFA)3 (18.7 mg, 34.5 μmol) in DMF (1.5 mL) at 4° C. for three hours. The resin was washed after this treatment, and treated with a cocktail of TFA/TIS/water (95/2.5/2.5, 2.0 mL) for two hours. The crude peptide was precipitated by adding ether to the cleavage cocktail, and purified by preparative HPLC using a Vydac C-18 column. Structures A-N were formed in this manner and their fibrin DD(E) fragment affinities were determined (Table 5).
N-terminal labeling of the peptides with optical probes can modulate the binding affinity of the optical contrast agents. For example, when comparing fluorescein, 4-methoxycoumarin and tetramethylrhodamine derivatives of the peptide (QWECPYGLCWIQ (SEQ ID NO:27); Kd=3 μM) the following Kd's were observed (Table 6): […]

The nature of data set [1]: Stability in rat liver homogenate. The data set is classed as in vitro ADME. Particulars: 37° C., LC-MS; for half-life: tissue homogenate. As for the experimental part: Stability was assayed using rat liver homogenate, which contains both intra- and extracellular enzymes and represents a particularly harsh chemical environment for peptide bonds. Freshly prepared rat liver homogenate (630 μL) was placed in a glass test tube and incubated at 37° C. in a water bath for 4 minutes. To the rat liver homogenate at 37° C. was added 70 μL of a 1 mM solution of test compound. At time points 0, 5, 15, 30, and 60 minutes, a 100 μL aliquot of the reaction mixture was removed and mixed with 100 μL of methanol in a microfuge tube to quench the reaction. The quenched reaction mixture was centrifuged for 3 minutes at 10,000 rpm to pellet the precipitated protein. The supernatant was analyzed by LC-MS to quantitate the amount of test compound remaining by comparing the area of the single ion MS peak to that of a series of standards. Half life (T1/2) was determined by plotting log percent signal remaining vs. time. The data were fit using an exponential curve fit, wherein T1/2=In2/slope.

Where [2] appears, read: fluorescein-labeled peptides, read-out: Kd (μM) Vs. DD(E).

Like-named read-outs stand apart in the source and are kept apart here. Positions of bridges follow the written chain, without caps; N, C: chain ends. Non-standard residues stand in square brackets, D forms with d. Residues, ends and D or L forms follow the SMILES beside them. *: point of attachment. FITC = O=C1OC2(c3ccc(O)cc3Oc3cc(O)ccc32)c2ccc(NC(=S)*)cc21; Tyr(3-I) = N[C@@H](Cc1ccc(O)c(I)c1)C(=O)O; Hyp = O=C(O)[C@@H]1C[C@@H](O)CN1; Ahx = NCCCCCC(=O)O

Sequence of fibrin DD(E) fragment (P02671 124-216): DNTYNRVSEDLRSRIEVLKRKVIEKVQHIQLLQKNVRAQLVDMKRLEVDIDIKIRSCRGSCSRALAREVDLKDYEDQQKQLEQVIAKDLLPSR
Sequence of fibrin DD(E) fragment (P02675 164-491): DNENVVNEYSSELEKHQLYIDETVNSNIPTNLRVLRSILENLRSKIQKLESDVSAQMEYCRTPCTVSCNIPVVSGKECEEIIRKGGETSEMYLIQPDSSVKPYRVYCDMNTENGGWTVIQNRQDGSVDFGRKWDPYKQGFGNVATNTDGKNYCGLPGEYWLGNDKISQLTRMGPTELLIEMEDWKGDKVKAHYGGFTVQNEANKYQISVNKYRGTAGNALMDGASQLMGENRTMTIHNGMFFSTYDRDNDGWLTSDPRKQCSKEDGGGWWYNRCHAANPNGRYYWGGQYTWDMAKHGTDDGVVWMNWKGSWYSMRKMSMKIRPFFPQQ
Sequence of fibrin DD(E) fragment (P02679 114-432): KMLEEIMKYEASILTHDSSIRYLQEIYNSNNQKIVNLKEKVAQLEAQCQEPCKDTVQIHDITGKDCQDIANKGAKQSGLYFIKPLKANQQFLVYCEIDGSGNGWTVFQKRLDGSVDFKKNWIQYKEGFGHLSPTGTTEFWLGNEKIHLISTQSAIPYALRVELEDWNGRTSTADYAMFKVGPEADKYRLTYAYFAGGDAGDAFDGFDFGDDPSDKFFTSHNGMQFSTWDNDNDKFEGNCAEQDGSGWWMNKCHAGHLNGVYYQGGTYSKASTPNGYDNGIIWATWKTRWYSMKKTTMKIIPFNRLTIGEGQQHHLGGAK
Sequence of fibrin DD(E) fragment (P02671 36-97): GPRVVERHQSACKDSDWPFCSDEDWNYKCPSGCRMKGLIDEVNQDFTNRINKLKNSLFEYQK
Sequence of fibrin DD(E) fragment (P02675 45-152): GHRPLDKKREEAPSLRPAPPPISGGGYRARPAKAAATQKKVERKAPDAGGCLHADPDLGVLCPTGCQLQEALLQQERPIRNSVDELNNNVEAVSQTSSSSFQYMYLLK
Sequence of fibrin DD(E) fragment (P02679 27-88): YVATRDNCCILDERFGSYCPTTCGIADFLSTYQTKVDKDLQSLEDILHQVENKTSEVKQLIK

Consider `CC[C@H](C)[C@H](NC(=O)[C@H](Cc1c[nH]cn1)NC(=O)[C@@H]1CSSC[C@H](NC(=O)[C@H](Cc2c[nH]cn2)NC(=O)[C@H](Cc2ccccc2)NC(=O)[C@H](Cc2c[nH]c3ccccc23)NC(=S)Nc2ccc3c(c2)C(=O)OC32c3ccc(O)cc3Oc3cc(O)ccc32)C(=O)N2CCC[C@H]2C(=O)N[C@@H](Cc2ccc(O)cc2)C(=O)N[C@@H](CC(=O)O)C(=O)N[C@@H](CC(C)C)C(=O)N1)C(=O)N[C@@H](CC(C)C)C(N)=O` [Compound K] (HELM PEPTIDE1{[O=C1OC2(c3ccc(O)cc3Oc3cc(O)ccc32)c2ccc(NC(=S)[*:2])cc21].W.F.H.C.P.Y.D.L.C.H.I.L.[am]}$PEPTIDE1,PEPTIDE1,5:R3-10:R3$$$V2.0), for which the Kd at fibrin DD(E) fragment (setting [2]) worked out at 0.06 µM.
As to `CC[C@H](C)[C@H](NC(=O)[C@H](Cc1c[nH]cn1)NC(=O)[C@@H]1CSSC[C@H](NC(=O)[C@H](Cc2c[nH]cn2)NC(=O)[C@H](Cc2ccccc2)NC(=O)[C@H](Cc2c[nH]c3ccccc23)NC(=O)CCCCCNC(=S)Nc2ccc3c(c2)C(=O)OC32c3ccc(O)cc3Oc3cc(O)ccc32)C(=O)N2C[C@H](O)C[C@H]2C(=O)N[C@@H](Cc2ccc(O)c(I)c2)C(=O)N[C@@H](CC(=O)O)C(=O)N[C@@H](CC(C)C)C(=O)N1)C(N)=O` [D] ({FITC-Ahx}-WFHC[Hyp][Tyr(3-I)]DLCHI-NH2; disulfide 4-9), the equilibrium dissociation constant (Kd) on fibrin DD(E) fragment (setting [2]) amounted to 0.061 µM.
On the same count and under the same terms, for `CC[C@H](C)[C@H](NC(=O)[C@H](Cc1c[nH]cn1)NC(=O)[C@@H]1CSSC[C@H](NC(=O)[C@H](Cc2c[nH]cn2)NC(=O)[C@H](Cc2ccccc2)NC(=O)CNC(=O)CCCCCNC(=S)Nc2ccc3c(c2)C(=O)OC32c3ccc(O)cc3Oc3cc(O)ccc32)C(=O)N2C[C@H](O)C[C@H]2C(=O)N[C@@H](Cc2ccc(O)c(I)c2)C(=O)N[C@@H](CC(=O)O)C(=O)N[C@@H](CC(C)C)C(=O)N1)C(N)=O` [C] ({FITC-Ahx}-GFHC[Hyp][Tyr(3-I)]DLCHI-NH2; disulfide 4-9) the value was 0.097 µM.
For `CC(C)C[C@H](NC(=O)[C@@H]1CSSC[C@H](NC(=O)[C@@H]2CCCN2C(=O)[C@H](CC(C)C)NC(=O)c2ccc(-c3ccccc3)cc2)C(=O)N[C@@H](CC(=O)O)C(=O)N[C@@H](Cc2ccc(O)cc2)C(=O)N[C@@H](Cc2ccc(O)cc2)C(=O)NCC(=O)N[C@@H]([C@@H](C)O)C(=O)N1)C(=O)N[C@@H](CC(=O)O)C(=O)NCCN(CCN(CCN)C(=O)C(CNC(=O)CN(CCN(CCN(CC(=O)O)CC(=O)O)CC(=O)O)CC(=O)O)NC(=O)CN(CCN(CCN(CC(=O)O)CC(=O)O)CC(=O)O)CC(=O)O)C(=O)C(CNC(=O)CN(CCN(CCN(CC(=O)O)CC(=O)O)CC(=O)O)CC(=O)O)NC(=O)CN(CCN(CCN(CC(=O)O)CC(=O)O)CC(=O)O)CC(=O)O` (stereo partly shown) [Structure 3], the half-life in data set [1] came out at 9 min.
Turning to `CC[C@H](C)[C@H](NC(=O)[C@H](Cc1c[nH]cn1)NC(=O)[C@@H]1CSSC[C@H](NC(=O)[C@H](Cc2c[nH]cn2)NC(=O)[C@H](Cc2ccccc2)NC(=O)CNC(=O)CNC(=O)CCCCCNC(=S)Nc2ccc3c(c2)C(=O)OC32c3ccc(O)cc3Oc3cc(O)ccc32)C(=O)N2C[C@H](O)C[C@H]2C(=O)N[C@@H](Cc2ccc(O)c(I)c2)C(=O)N[C@@H](CC(=O)O)C(=O)N[C@@H](CC(C)C)C(=O)N1)C(N)=O` [E] ({FITC-Ahx}-GGFHC[Hyp][Tyr(3-I)]DLCHI-NH2; disulfide 5-10), at fibrin DD(E) fragment (setting [2]), the Kd came to 0.09 µM.
In the case of `CC(C)C[C@H](NC(=O)[C@@H]1CSSC[C@H](NC(=O)[C@@H]2CCCN2C(=O)[C@H](CC(C)C)NC(=O)C(CNC(=O)C(CN(CCN(CC(=O)O)CC(=O)O)CC(=O)O)N(CC(=O)O)CC(=O)O)NC(=O)C(CN(CCN(CC(=O)O)CC(=O)O)CC(=O)O)N(CC(=O)O)CC(=O)O)C(=O)N[C@@H](CC(=O)O)C(=O)N[C@@H](Cc2ccc(O)cc2)C(=O)N[C@@H](Cc2ccc(O)cc2)C(=O)NCC(=O)N[C@@H]([C@@H](C)O)C(=O)N1)C(=O)N[C@@H](CC(=O)O)C(=O)NCc1ccc(CNC(=O)C(CNC(=O)C(CN(CCN(CC(=O)O)CC(=O)O)CC(=O)O)N(CC(=O)O)CC(=O)O)NC(=O)C(CN(CCN(CC(=O)O)CC(=O)O)CC(=O)O)N(CC(=O)O)CC(=O)O)cc1` (stereo partly shown) [Compound 5], the half-life in data set [1] was 65 min.
The same measure, in the same setting: for `C=NOCC(=O)NCCN(CCN(CCNC(=O)CO/N=C/C(=O)N[C@@H](CC(C)C)C(=O)N1CCC[C@H]1C(=O)N[C@H]1CSSC[C@@H](C(=O)N[C@@H](Cc2ccc(-c3ccccc3)cc2)C(=O)N[C@@H](CC(=O)O)C(N)=O)NC(=O)[C@H]([C@@H](C)O)NC(=O)CNC(=O)[C@H](Cc2ccc(O)cc2)NC(=O)[C@H](Cc2ccc(O)cc2)NC(=O)[C@H](CC(=O)O)NC1=O)C(=O)C(CNC(=O)CN(CCN(CCN(CC(=O)O)CC(=O)O)CC(=O)O)CC(=O)O)NC(=O)CN(CCN(CCN(CC(=O)O)CC(=O)O)CC(=O)O)CC(=O)O)C(=O)C(CNC(=O)CN(CCN(CCN(CC(=O)O)CC(=O)O)CC(=O)O)CC(=O)O)NC(=O)CN(CCN(CCN(CC(=O)O)CC(=O)O)CC(=O)O)CC(=O)O` (stereo partly shown) [Structure 2] the value was 10 min.
The molecule `CC(C)C[C@H](NC(=O)[C@@H]1CSSC[C@H](NC(=O)[C@@H]2CCCN2C(=O)[C@@H](N)CC(C)C)C(=O)N[C@@H](CC(=O)O)C(=O)N[C@@H](Cc2ccc(O)cc2)C(=O)N[C@@H](Cc2ccc(O)cc2)C(=O)NCC(=O)N[C@@H](C(C)O)C(=O)N1)C(=O)N[C@@H](CC(=O)O)C(N)=O` (stereo partly shown) [Structure 1] gave a half-life at 100 µM in data set [1] of less than 2 min.
Regarding `CC[C@H](C)[C@H](NC(=O)[C@H](Cc1c[nH]c2ccccc12)NC(=O)[C@@H]1CSSC[C@H](NC(=O)[C@H](CCC(=O)O)NC(=O)[C@H](Cc2c[nH]c3ccccc23)NC(=O)[C@H](CCC(N)=O)NC(=S)Nc2ccc3c(c2)C(=O)OC32c3ccc(O)cc3Oc3cc(O)ccc32)C(=O)N2CCC[C@H]2C(=O)N[C@@H](Cc2ccc(O)cc2)C(=O)NCC(=O)N[C@@H](CC(C)C)C(=O)N1)C(=O)N[C@@H](CCC(N)=O)C(N)=O` [J] (HELM PEPTIDE1{[O=C1OC2(c3ccc(O)cc3Oc3cc(O)ccc32)c2ccc(NC(=S)[*:2])cc21].Q.W.E.C.P.Y.G.L.C.W.I.Q.[am]}$PEPTIDE1,PEPTIDE1,5:R3-10:R3$$$V2.0), the Kd on fibrin DD(E) fragment (setting [2]) was 0.055 µM; at fibrin DD(E) fragment (fluorophore derivatives of QWECPYGLCWIQ, no unit in Table 6, read-out: Kd), 0.06 µM.

As a reminder, the Kd is the equilibrium constant for the complex coming apart. In general, half-life refers to how long it takes for the measured level to halve. High values mean slow decline, low ones rapid decline.
